Square brackets hold non-standard residues; d marks the D form. Ends that are not written are not given here. Peptide text beside a SMILES is read from it. pS = N[C@@H](COP(=O)(O)O)C(=O)O
What was measured:
pS210-Rnd3 = pS210-Rnd3 immunoblot in treated COS7 cells; format: cell-based; details: 2 hr, PMA 100 nM, BIM1 1 μM
Method: (§1) COS7 cells grown in Dulbecco’s modified Eagle’s medium (DMEM) containing 10% bovine fetal calf serum and penicillin/streptomycin (Invitrogen) were electroporated with 5 μg DNA at 250 V and 960 μF using 0.4 cm Gene Pulser Cuvettes (Bio-Rad) in 250 μl of electroporation buffer (120 mM KCl, 10 mM K2PO4/KH2PO4 [pH 7.6], 25 mM HEPES [pH 7.6], 2 mM MgCl2, and 0.5% Ficoll). Cells were analyzed 24 hr after transfection. NIH 3T3 cells grown in DMEM containing 10% donor bovine serum and penicillin/streptomycin were transfected using FuGENE 6 (Roche) according to the manufacturer’s instructions. Where indicated, cells were treated for 20 min with 100 nM calyculin A (Alexis); for 2 hr with 100 nM staurosporine (Calbiochem), 20 μM H-1152 (Calbiochem), 1 μM bisindolylmaleimide I (BIM1, Calbiochem), or 100 nM phorbol-12-myristate-13-acetate (PMA, Cell Signaling Technology); and for 16 hr with 10 μM L-744,832 farnesyltransferase inhibitor (FTI, Calbiochem).
Rabbit polyclonal antisera were raised against phosphorylated Rnd3-S210 peptide (KNVKRNKpSQRA) by Eurogentec, Seraing, Belgium. Nonspecific antibodies were removed through a nonphosphopeptide (KNVKRNKSQRA) column followed by a specific phosphoenrichment of the antibodies by affinity purification using a phosphopeptide column. […]

Rnd3/14-3-3 interaction = test: Co-immunoprecipitation of Rnd3 with 14-3-3 proteins from treated COS7 cells; format: cell-based; details: staurosporine 100 nM 2 hr, calyculin A 100 nM 20 min, FTI (L-744,832) 10 μM 16 hr, immunoblot
Method: as §1
Transfected COS7 cells were lysed in lysis buffer LB (1% Triton X-100, 20 mM Tris–HCl [pH 8], 130 mM NaCl, 1 mM dithiothreitol [DTT], 10 mM sodium fluoride, complete EDTA-free protease inhibitor cocktail [Roche], phosphatase inhibitor cocktails [set II+IV, Calbiochem]). After centrifugation (13,000 g, 4°C, 10 min), soluble proteins were precleared then incubated with either mouse nonimmune IgG as a control, mouse anti-HA (HA-7) or mouse anti-FLAG (M2) antibody on agarose beads (Sigma-Aldrich) for 2 hr at 4°C. Beads were washed five times with lysis buffer (containing 260 mM NaCl), then bound proteins were eluted in Laemmli sample buffer (LSB), resolved by SDS–PAGE and analyzed by immunoblotting.

14-3-3ζ [1] = molecular target: T1, 14-3-3ζ (Homo sapiens, UniProt P63104); test: Isothermal titration calorimetry of Rnd3 C-terminal peptides with 14-3-3ζ; format: binding; details: ITC
T1 construct: hexa-His; made in house; host or cells: E. coli BL21(DE3) Star
T1 sequence (P63104 1-245): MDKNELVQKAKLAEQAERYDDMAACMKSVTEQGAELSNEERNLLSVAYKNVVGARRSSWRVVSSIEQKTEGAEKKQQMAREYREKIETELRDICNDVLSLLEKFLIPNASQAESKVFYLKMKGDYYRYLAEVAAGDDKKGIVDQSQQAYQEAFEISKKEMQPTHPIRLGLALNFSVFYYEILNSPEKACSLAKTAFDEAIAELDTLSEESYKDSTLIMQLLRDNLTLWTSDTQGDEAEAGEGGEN
Method: ITC measurements were carried out using a VP-ITC200 instrument (GE Healthcare). The 14-3-3ζ domain (see Extended Experimental Procedures) was used at 50–60 μM in ITC buffer (50 mM Tris [pH 7.5]), 100 mM NaCl, 1 mM TCEP). Rnd3 C-terminal peptides were solubilized in ITC buffer and used at 500–600 μM. Titrations were carried out at 25°C in triplicate. Each titration was fitted to a simple one-site binding model using the Origin software provided with the instrument. Titrations with nonbinding peptides were carried out at 15°C and 25°C.
GST-14-3-3β protein was expressed as previously reported ([Yaffe et al., 1997]). A hexa-His-tagged version of 14-3-3ζ was expressed and purified essentially as previously reported ([Kostelecky et al., 2009]). In brief, the E. coli strain BL21(DE3) Star (Invitrogen) was transformed with the expression plasmid that was maintained by 34 μg/ml chloramphenicol. E. coli cells were grown to OD600nm of 0.7-0.8 in TB medium at 37°C and protein expression induced by 1 mM IPTG for 5 hr at 30°C. Pelleted cells were suspended in buffer A (25 mM Tris [pH 7.5], 100 mM NaCl, 1 mM EDTA, and 1 mM DTT) and disrupted by sonication. Insoluble material was cleared by high-speed centrifugation and the cleared lysate applied to a 5 ml HisTrap column using an AKTA system (GE Healthcare). The 14-3-3ζ protein was eluted with a linear gradient (0–500 mM) of Imidazole in buffer A. Finally, the protein was subjected to size-exclusion chromatography using a High-Load S200 pg column. As previously described, 14-3-3ζ eluted as a dimer with a molecular weight of ∼60 kDa. The final yield of 14-3-3ζ was 30–40 mg per liter of TB medium.

14-3-3ζ [2] = molecular target: T1, 14-3-3ζ; test: Biolayer interferometry (Octet RED96), immobilised biotinylated peptides, 14-3-3ζ in solution; format: binding; details: determined by steady-state analysis, typical experiment (n ≥ 3)
Method: Biolayer interferometry was carried out using an Octet RED96 instrument (ForteBio). Biotinylated peptides were immobilized on streptavadin-coated biosensors (ForteBio) at a concentration of 1 μg/ml in BI buffer (25 mM Tris, 150 mM NaCl, 0.1% Tween-20), for 300 s. The immobilization typically reached a response level of 2 nm. Association and dissociation curves were obtained through addition of a dilution series of 14-3-3ζ ([…]) for 300 s followed by dissociation in BI buffer for 300 s using the Octet acquisition software. The binding data were fitted using the Octet analysis software.

[3] = system: GST-14-3-3β / Rnd3 interaction; test: Peptide competition in GST-14-3-3β pull-down of FLAG-Rnd3 from COS7 lysates; format: binding; details: peptide 10 μg/ml preincubated 15 min at 4°C with GST-14-3-3β; immunoblot
Method: Recombinant GST-14-3-3β was expressed and purified from E. coli (Extended Experimental Procedures). FLAG-Rnd3-transfected COS7 cells were lysed in LB buffer. After removal of insoluble material, precleared cell lysates were incubated at 4°C for 2 hr with the recombinant GST or GST-14-3-3β protein (5 μg) on glutathione beads (Amersham Biosciences). Beads were washed with LB buffer before eluting the proteins in LSB. The proteins were resolved by SDS-PAGE and analyzed by immunoblotting.
For peptide competition experiments (Table S3; Extended Experimental Procedures), peptides (10 μg/ml) were preincubated for 15 min at 4°C with the GST-14-3-3β prior to the addition of precleared cell lysates.

[4] = molecular target: biotinylated Rnd3 C-terminal peptide, phosphorylated on S240 (+P−F) (human); test: BLI; Octet RED96; biotinylated peptides immobilised on streptavidin biosensors; dilution series of 14-3-3ζ; 25 mM Tris, 150 mM NaCl, 0.1% Tween-20; KD of +P-F by steady-state analysis
[5] = molecular target: biotinylated Rnd3 C-terminal peptide, phosphorylated on S240 and farnesylated on C241 (+P+F) (human); test: as above
[6] = molecular target: biotinylated Rnd3 C-terminal peptide, phosphorylated on S240 and geranylated (+P+G) (human); test: as above
[7] = molecular target: biotinylated Rnd3 C-terminal peptide, phosphorylated on S240 and geranylgeranylated (+P+GG) (human); test: as above
[8] = molecular target: biotinylated Rnd3 C-terminal peptide, phosphorylated on S240 and isoprenylated (+P+Ipr) (human); test: as above
hexa-His-tagged 14-3-3ζ = molecular target: T2, hexa-His-tagged 14-3-3ζ (UniProt P63104 1-245); test: BLI; Octet RED96; biotinylated peptides immobilised on streptavidin-coated biosensors (1 μg/ml, 300 s); dilution series of 14-3-3ζ for 300 s, dissociation 300 s; BI buffer 25 mM Tris, 150 mM NaCl, 0.1% Tween-20; data of a typical experiment (n ≥ 3); details: both partners purified
T2 construct: 14-3-3 protein zeta; expressed and purified essentially as in Kostelecky et al., 2009; eluted as a dimer of ~60 kDa; the ITC methods call it 'the 14-3-3ζ domain'; source: E. coli BL21(DE3) Star, purified (HisTrap, size-exclusion chromatography)
T2 sequence: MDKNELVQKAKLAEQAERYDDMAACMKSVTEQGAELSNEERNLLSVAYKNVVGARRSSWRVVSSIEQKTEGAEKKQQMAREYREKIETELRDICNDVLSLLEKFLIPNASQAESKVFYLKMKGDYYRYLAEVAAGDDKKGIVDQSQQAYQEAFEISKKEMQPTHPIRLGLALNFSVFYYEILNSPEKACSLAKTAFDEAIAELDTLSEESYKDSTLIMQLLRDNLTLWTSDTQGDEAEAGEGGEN

In the case of CCCCCCCCCCCCCC(=O)O[C@@H]1[C@@H](C)[C@@]2(O)[C@@H](C=C(CO)C[C@]3(O)C(=O)C(C)=C[C@@H]23)[C@@H]2C(C)(C)[C@]12OC(C)=O [PMA, phorbol-12-myristate-13-acetate], the “effect on pS210-Rnd3” value (pS210-Rnd3) is reported as “increase”.

With CN(C)CCCn1cc(C2=C(c3c[nH]c4ccccc34)C(=O)NC2=O)c2ccccc21 [BIM1, bisindolylmaleimide I] the “effect on pS210-Rnd3” value (pS210-Rnd3) was “reduced”.

With COC[C@@H]([C@H](O)[C@H](O)C(=O)NCC[C@H](C)c1nc(/C=C/C[C@@H]2O[C@]3(C[C@@H](O)[C@@H]2C)O[C@H]([C@H](C[C@H](O)[C@H](C)[C@H](O)[C@H](C)/C=C(C)/C(C)=C/C=C/C(C)=C\C#N)OC)[C@H](OP(=O)(O)O)C3(C)C)co1)N(C)C [calyculin A] the “effect on Rnd3/14-3-3 interaction” value (Rnd3/14-3-3 interaction) was “increased”.

In the case of CC(C)C[C@H](NC(=O)[C@@H](N)CC(=O)O)C(=O)N[C@@H](CCCNC(=N)N)C(=O)N[C@@H](CCCCN)C(=O)N[C@@H](CC(=O)O)C(=O)N[C@@H](CCCCN)C(=O)N[C@@H](C)C(=O)N[C@@H](CCCCN)C(=O)N[C@@H](COP(=O)(O)O)C(=O)N[C@@H](CS)C(=O)O [+P-F] (H-DLRKDKAK[pS]C-OH), the Kd (14-3-3ζ [1]; 25°C, 50 mM Tris pH 7.5, 100 mM NaCl, 1 mM TCEP, one-site model, mean ± SD, n = 3) is reported as 1060 ± 40 nM, the “Stoichiometry (N)” value (14-3-3ζ [1]; 25°C, 14-3-3ζ 50–60 μM, peptide 500–600 μM, 50 mM Tris pH 7.5, 100 mM NaCl, 1 mM TCEP, one-site model, mean ± SD, n = 3) is reported as 0.89 ± 0.017 and the TΔS (14-3-3ζ [1]; 25°C, mean ± SD, n = 3) is reported as 2.469 ± 0.231 kcal/mol. For the same molecule, the ΔG (14-3-3ζ [1]; 25°C, mean ± SD, n = 3) was -8.152 ± 0.027 kcal/mol, the ΔH (14-3-3ζ [1]; 25°C, mean ± SD, n = 3) was -5.683 ± 0.204 kcal/mol and the “N (printed in Figure 5C)” value (14-3-3ζ [1]; fitted curve of Figure 5C) was 0.89. For the same molecule, the Kd (14-3-3ζ [2]) was 1300 nM and the “inhibition of the interaction between GST-14-3-3β and Rnd3” value [3] was “only slightly inhibited”.

“N-CDRSKpSAPTS-C [PKC, reference compound]” was tested, and the “inhibition of the interaction between GST-14-3-3β and Rnd3” value [3] was “inhibited”.

With CN[C@@H]1C[C@H]2O[C@@](C)([C@@H]1OC)n1c3ccccc3c3c4c(c5c6ccccc6n2c5c31)C(=O)NC4 [staurosporine] the “effect on Rnd3/14-3-3 interaction” value (Rnd3/14-3-3 interaction) was “reduced”.

For CC[C@H](C)[C@@H](CO[C@@H](Cc1ccccc1)C(=O)N[C@@H](CCS(C)(=O)=O)C(=O)OC(C)C)NC[C@@H](N)CS [FTI, L-744,832], the “effect on Rnd3/14-3-3 interaction” value (Rnd3/14-3-3 interaction) was “prevented”.

With “hexa-His-tagged 14-3-3ζ (from UniProt P63104 1-245) (natural protein)” the Kd [4] was 1300 nM, the Kd [5] was 32.4 nM and the koff [5] was 0.028 s⁻¹. It also gave a kon [5] of 860000 M⁻¹ s⁻¹, a Kd [6] of 56.5 nM and a koff [6] of 0.032 s⁻¹. For the same molecule, the kon [6] was 570000 M⁻¹ s⁻¹, the Kd [7] was 23.2 nM and the koff [7] was 0.021 s⁻¹. It also gave a kon [7] of 890000 M⁻¹ s⁻¹, a Kd [8] of 556 nM and a koff [8] of 0.13 s⁻¹. It also gave a kon [8] of 240000 M⁻¹ s⁻¹.

B1: Rap1A C-terminal peptide, phosphorylated, not geranylgeranylated (biotinylated) (peptide)
peptide: EKKKPKKK[pS]C
modifications: not fully specified (N-terminus); also: biotinylated
notes: Rap1A C-terminal peptide as Dm2 but without the geranylgeranyl modification; also called Rap1A+P-GG; nonmodified phosphopeptide; source: synthetic peptide
In the case of B1, the Kd (hexa-His-tagged 14-3-3ζ) is reported as > 1000 nM.

— PMC3690454, “14-3-3 Proteins Interact with a Hybrid Prenyl-Phosphorylation Motif to Inhibit G Proteins” (Cell, 2013)
